Common to all, as to assay type: cell-based
In experiment [1] the target is T1, EGFR L858R/C797S (Ba/F3 cells) (Homo sapiens, UniProt P00533, C797S/L858R).
T1 construct: expressed in transfected cells; host or cells: Ba/F3 (murine pro-B cells), retroviral transduction, puromycin selection, IL3-independent pool
The experiment is described as follows: Inhibitor activity on EGFR-dependent cell growth (CellTiter-Glo, 72 h), Ba/F3 EGFR L858R/C797S. The note with it: read-out: BaF3 L858R/C797S IC50. The method in brief:
(§1)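 Mutant EGFR drives IL3-independent growth of engineered Ba/F3 pools. L858R cells go in at 400/well, L858R/C797S at 600, and exon 19del or FQEA insertion at 800. After 72 h with compound, plates are equilibrated 15 min at RT. Reagent is added 1:1, followed by 30 min and a luminescence read.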
(In ATP-based viability assays light output follows the ATP content of the culture.)

Experiment [2] deals with T2, EGFR exon 20 NPG Ins D770_N771 (Ba/F3 cells) (Homo sapiens, UniProt P00533, INS770NPG).
T2 construct: expressed in transfected cells; host or cells: Ba/F3 (murine pro-B cells), retroviral transduction, puromycin selection, IL3-independent pool
T2 sequence (P00533 with tags, fused parts or gaps INS770NPG): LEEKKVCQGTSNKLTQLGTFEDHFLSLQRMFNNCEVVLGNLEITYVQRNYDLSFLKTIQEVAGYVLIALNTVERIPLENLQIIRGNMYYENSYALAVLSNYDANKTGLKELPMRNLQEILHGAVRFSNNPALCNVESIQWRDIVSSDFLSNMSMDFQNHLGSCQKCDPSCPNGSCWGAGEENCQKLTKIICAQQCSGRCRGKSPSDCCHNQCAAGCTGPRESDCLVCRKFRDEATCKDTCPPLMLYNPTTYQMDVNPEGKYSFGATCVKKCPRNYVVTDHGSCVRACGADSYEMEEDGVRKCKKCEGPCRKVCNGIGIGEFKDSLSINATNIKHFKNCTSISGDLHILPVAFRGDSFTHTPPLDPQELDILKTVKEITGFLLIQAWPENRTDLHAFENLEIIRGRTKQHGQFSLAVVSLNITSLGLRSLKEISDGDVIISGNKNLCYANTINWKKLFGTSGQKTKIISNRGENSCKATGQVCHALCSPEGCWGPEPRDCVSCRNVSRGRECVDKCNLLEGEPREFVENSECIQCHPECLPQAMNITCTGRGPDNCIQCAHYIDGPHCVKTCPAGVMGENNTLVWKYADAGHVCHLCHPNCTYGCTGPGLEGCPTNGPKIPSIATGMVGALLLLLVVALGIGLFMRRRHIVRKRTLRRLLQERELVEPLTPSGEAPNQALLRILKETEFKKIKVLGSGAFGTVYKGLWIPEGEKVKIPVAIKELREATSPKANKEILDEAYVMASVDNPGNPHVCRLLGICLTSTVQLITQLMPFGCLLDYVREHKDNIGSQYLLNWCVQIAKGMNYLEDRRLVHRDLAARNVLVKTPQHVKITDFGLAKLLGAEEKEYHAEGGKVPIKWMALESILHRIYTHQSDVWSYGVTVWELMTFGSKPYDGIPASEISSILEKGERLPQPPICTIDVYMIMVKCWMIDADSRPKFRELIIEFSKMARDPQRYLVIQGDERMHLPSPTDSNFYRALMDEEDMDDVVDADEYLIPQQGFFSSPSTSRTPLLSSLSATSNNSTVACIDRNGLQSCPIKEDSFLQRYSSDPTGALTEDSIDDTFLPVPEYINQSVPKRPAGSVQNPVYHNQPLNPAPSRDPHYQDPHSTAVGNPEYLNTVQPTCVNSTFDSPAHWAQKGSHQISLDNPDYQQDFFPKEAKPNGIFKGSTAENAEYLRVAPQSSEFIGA
Briefly: Inhibitor activity on EGFR phosphorylation (pEGFR AlphaLISA, 2 h), Ba/F3 EGFR exon 20 NPG Ins. An outline of the steps: (§2)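 Steps: seed cells (Ba/F3 50K, CUTO14 12.5K per well); add 3-fold, 10-point compound dilution; incubate 2 h; lyse 1 hr; add acceptor then donor beads (1.5 hrs, RT, dark); read AlphaLISA signal for IC50.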
On the technique in general: Bead proximity is the source of the signal in Alpha formats.

Experiment [3] concerns the target T3, EGFR exon 20 SVD Ins D770_N771 (Ba/F3 cells) (Homo sapiens, UniProt P00533, INS770SVD).
T3 construct: expressed in transfected cells; host or cells: Ba/F3 (murine pro-B cells), retroviral transduction, puromycin selection, IL3-independent pool
The experiment is described as follows: Inhibitor activity on EGFR-dependent cell growth (CellTiter-Glo, 72 h), Ba/F3 EGFR exon 20 SVD Ins. The note with it: read-out: BaF3 SVD IC50. The method in brief:
(§3)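 IC50s derive from a sigmoidal dose–response fit of CellTiter-Glo signal. The signal was normalised between […]-treated cells and cell-free medium. Ba/F3 mutant-EGFR cells, seeded at 400–800/well depending on the line, had 72 h of exposure to a 10-point, 3-fold compound series.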

For experiment [4], the target named is T1, EGFR L858R/C797S (Ba/F3 cells). The experiment is described as follows: Inhibitor activity on EGFR phosphorylation (pEGFR AlphaLISA, 2 h), Ba/F3 EGFR L858R/C797S. An outline of the steps:
as §2

The target in another experiment is EGFR (CUTO14 cells) (Homo sapiens, UniProt P00533). Briefly: Inhibitor activity on EGFR phosphorylation (pEGFR AlphaLISA, 2 h), CUTO14 cells. The method in brief:
as §2

Another experiment deals with T4, EGFR WT (Ba/F3 cells) (Homo sapiens, UniProt P00533).
T4 construct: expressed in transfected cells; host or cells: Ba/F3 (murine pro-B cells), retroviral transduction, puromycin selection, maintained with EGF
The experiment is described as follows: Inhibitor activity on EGFR-dependent cell growth (CellTiter-Glo, 72 h), Ba/F3 EGFR WT. The note with it: read-out: BaF3 WT IC50. The method in brief: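 This growth assay used Ba/F3 cells that depend on wild-type EGFR and are kept in EGF without IL3. Compounds were made up as 10 mM DMSO stocks and diluted 3-fold over 10 points. 120 nL went onto 600 cells/well. After 72 hours, 40 μL CellTiter-Glo was added and luminescence read on EnVision after 30 min.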

The target in experiment [5] is T5, EGFR exon 19del (Ba/F3 cells) (Homo sapiens, UniProt P00533). Briefly: Inhibitor activity on EGFR phosphorylation (pEGFR AlphaLISA, 2 h), Ba/F3 EGFR exon 19del. Particulars: read-out: Del19 IC50 (pEGFR). The method in brief: as §2
T5 sequence (P00533 with tags, fused parts or gaps DEL746-750): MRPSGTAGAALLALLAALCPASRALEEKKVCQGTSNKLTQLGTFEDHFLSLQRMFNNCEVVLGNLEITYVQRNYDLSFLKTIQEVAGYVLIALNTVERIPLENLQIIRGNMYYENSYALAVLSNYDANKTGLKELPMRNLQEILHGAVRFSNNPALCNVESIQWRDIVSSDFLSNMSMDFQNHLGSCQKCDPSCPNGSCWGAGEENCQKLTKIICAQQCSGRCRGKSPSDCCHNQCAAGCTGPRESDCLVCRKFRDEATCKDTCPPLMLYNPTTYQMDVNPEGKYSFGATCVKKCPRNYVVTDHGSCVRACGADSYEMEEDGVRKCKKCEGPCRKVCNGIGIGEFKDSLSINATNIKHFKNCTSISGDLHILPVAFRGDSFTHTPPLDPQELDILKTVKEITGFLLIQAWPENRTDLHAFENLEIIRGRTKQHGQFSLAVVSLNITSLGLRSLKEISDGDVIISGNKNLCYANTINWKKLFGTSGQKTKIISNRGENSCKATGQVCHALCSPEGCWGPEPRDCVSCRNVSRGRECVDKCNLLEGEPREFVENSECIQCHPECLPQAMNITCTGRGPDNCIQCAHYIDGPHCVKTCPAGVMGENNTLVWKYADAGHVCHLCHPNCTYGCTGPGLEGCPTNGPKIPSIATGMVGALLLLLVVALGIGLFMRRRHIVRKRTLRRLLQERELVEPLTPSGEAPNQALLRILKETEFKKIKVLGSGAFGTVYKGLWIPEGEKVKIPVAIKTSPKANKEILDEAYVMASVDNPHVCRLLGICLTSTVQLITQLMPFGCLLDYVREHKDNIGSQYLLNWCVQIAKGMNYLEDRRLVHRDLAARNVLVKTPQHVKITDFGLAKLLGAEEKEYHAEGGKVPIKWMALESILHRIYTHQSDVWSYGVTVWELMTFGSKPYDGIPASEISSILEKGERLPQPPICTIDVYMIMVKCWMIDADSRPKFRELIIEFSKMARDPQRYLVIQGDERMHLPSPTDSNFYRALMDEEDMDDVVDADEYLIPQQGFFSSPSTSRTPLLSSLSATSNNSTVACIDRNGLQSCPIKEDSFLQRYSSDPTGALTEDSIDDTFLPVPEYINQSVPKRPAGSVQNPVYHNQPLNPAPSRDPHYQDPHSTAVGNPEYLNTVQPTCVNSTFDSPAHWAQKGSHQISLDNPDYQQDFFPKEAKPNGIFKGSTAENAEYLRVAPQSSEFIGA
The target of experiment [6] is T3, EGFR exon 20 SVD Ins D770_N771 (Ba/F3 cells). The experiment is described as follows: Inhibitor activity on EGFR phosphorylation (pEGFR AlphaLISA, 2 h), Ba/F3 EGFR exon 20 SVD Ins. An outline of the steps: as §2
Experiment [7] concerns the target T6, EGFR exon 20 FQEA Ins A763_V764 (Ba/F3 cells) (Homo sapiens, UniProt P00533, INS763FQEA).
T6 construct: expressed in transfected cells; host or cells: Ba/F3 (murine pro-B cells), retroviral transduction, puromycin selection, IL3-independent pool
The experiment is described as follows: Inhibitor activity on EGFR-dependent cell growth (CellTiter-Glo, 72 h), Ba/F3 EGFR exon 20 FQEA Ins. Particulars: read-out: BaF3 FQEA IC50. An outline of the steps: as §1

In experiment [8] the target is T7, EGFR exon 20 ASV Ins V769_D770 (Ba/F3 cells) (Homo sapiens, UniProt P00533, INS769ASV).
T7 construct: expressed in transfected cells; host or cells: Ba/F3 (murine pro-B cells), retroviral transduction, puromycin selection, IL3-independent pool
Briefly: Inhibitor activity on EGFR phosphorylation (pEGFR AlphaLISA, 2 h), Ba/F3 EGFR exon 20 ASV Ins. The note with it: EGFR phosphorylation, AlphaLISA, 2 hours; read-out: ASV IC50 (pEGFR). The method in brief:
as §2

Experiment [9] has as its target T2, EGFR exon 20 NPG Ins D770_N771 (Ba/F3 cells). Briefly: Inhibitor activity on EGFR-dependent cell growth (CellTiter-Glo, 72 h), Ba/F3 EGFR exon 20 NPG Ins. The note with it: read-out: BaF3 NPG IC50. The method in brief:
as §3

Experiment [10] concerns the target T8, EGFR L858R (Ba/F3 cells) (Homo sapiens, UniProt P00533, L858R).
T8 construct: expressed in transfected cells; host or cells: Ba/F3 (murine pro-B cells), retroviral transduction, puromycin selection, IL3-independent pool
Briefly: Inhibitor activity on EGFR phosphorylation (pEGFR AlphaLISA, 2 h), Ba/F3 EGFR L858R. The method in brief: as §2

The target in experiment [11] is T8, EGFR L858R (Ba/F3 cells). The experiment is described as follows: Inhibitor activity on EGFR-dependent cell growth (CellTiter-Glo, 72 h), Ba/F3 EGFR L858R. The note with it: read-out: BaF3 L858R IC50. An outline of the steps: as §1
Experiment [12] deals with T5, EGFR exon 19del (Ba/F3 cells). The experiment is described as follows: Inhibitor activity on EGFR-dependent cell growth (CellTiter-Glo, 72 h), Ba/F3 EGFR exon 19del. The note with it: Ba/F3 EGFR exon 19del cell growth, read-out: BaF3 Del19 IC50. The method in brief:
as §1

In experiment [13] the target is T7, EGFR exon 20 ASV Ins V769_D770 (Ba/F3 cells). Briefly: Inhibitor activity on EGFR-dependent cell growth (CellTiter-Glo, 72 h), Ba/F3 EGFR exon 20 ASV Ins. The note with it: read-out: BaF3 ASV IC50. The method in brief: as §3

T3 sequence (P00533 with tags, fused parts or gaps INS770SVD): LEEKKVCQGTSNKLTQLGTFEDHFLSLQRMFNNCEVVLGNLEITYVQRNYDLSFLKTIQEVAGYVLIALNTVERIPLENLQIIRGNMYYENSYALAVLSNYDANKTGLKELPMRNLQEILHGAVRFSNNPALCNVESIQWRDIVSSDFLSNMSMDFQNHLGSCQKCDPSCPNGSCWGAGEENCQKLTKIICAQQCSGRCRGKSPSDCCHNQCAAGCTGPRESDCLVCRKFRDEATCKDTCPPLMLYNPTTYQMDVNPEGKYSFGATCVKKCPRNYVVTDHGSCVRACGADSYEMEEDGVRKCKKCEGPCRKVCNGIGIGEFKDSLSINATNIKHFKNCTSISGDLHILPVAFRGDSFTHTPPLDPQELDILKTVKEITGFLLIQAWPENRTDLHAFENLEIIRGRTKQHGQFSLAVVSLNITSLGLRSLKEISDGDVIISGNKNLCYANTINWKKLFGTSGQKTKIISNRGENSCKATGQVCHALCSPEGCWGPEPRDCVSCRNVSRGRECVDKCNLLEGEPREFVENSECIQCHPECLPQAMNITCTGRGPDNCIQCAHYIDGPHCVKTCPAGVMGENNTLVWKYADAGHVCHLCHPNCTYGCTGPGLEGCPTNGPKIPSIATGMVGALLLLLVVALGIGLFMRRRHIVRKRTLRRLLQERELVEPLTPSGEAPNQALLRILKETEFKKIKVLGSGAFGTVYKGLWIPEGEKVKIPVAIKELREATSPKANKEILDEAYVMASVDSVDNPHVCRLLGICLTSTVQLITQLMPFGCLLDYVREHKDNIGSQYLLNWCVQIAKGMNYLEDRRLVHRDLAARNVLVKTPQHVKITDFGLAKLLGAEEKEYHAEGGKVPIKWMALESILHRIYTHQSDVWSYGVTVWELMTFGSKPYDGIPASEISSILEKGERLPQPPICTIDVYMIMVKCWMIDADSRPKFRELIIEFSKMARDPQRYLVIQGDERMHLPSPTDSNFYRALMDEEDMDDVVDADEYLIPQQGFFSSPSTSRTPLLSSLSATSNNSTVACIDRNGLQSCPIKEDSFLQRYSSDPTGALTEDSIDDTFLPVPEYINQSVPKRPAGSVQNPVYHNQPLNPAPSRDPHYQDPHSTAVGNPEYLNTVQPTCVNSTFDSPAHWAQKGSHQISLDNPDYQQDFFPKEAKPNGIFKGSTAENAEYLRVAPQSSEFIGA
T1 sequence (P00533 25-1210 C797S/L858R): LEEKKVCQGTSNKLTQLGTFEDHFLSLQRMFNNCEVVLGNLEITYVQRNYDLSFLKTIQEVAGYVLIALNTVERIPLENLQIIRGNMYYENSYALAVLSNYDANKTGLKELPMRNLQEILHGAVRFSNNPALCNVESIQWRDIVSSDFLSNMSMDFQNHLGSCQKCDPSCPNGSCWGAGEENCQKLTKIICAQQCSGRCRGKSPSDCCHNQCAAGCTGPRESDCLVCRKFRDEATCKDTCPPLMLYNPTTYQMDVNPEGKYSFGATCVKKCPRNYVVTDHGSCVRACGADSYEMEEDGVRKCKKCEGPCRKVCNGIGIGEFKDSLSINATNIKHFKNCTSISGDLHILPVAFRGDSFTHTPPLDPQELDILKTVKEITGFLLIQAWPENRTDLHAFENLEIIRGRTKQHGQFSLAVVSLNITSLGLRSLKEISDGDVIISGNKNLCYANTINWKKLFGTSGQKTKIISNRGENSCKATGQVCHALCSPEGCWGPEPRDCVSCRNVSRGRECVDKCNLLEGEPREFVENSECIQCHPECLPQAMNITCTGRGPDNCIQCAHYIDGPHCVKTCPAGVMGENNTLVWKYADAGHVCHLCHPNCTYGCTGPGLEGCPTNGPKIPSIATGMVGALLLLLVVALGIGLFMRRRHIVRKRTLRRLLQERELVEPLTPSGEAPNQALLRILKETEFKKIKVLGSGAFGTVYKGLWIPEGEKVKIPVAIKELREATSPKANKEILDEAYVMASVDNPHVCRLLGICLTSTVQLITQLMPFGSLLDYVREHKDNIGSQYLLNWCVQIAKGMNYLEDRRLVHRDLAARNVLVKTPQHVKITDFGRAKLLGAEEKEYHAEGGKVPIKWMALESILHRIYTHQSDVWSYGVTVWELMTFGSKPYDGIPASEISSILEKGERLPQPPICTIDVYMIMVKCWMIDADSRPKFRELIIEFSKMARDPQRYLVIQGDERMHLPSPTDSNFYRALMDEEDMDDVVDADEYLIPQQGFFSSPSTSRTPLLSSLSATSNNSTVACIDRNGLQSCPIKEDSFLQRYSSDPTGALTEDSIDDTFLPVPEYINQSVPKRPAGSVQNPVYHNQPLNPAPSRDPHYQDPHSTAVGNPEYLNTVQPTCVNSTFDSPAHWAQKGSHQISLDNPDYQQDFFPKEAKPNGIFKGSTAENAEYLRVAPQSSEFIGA

As for `COc1c(Cl)cccc1Nc1c(-c2ccncc2F)[nH]c2c1C(=O)NC[C@@]21CCN(CC(F)(F)F)C1` [compound 817], the IC50 in experiment [1] was less than 100 nM; in experiment [2] it was less than 100 nM; in experiment [3], less than 100 nM; in [4], less than 100 nM; on EGFR (CUTO14 cells), less than 100 nM; at EGFR WT (Ba/F3 cells), 100 to 1000 nM. Moreover, the IC50 (in experiment [5]; in [6]; in [7]; in experiment [8]; in experiment [9]; on EGFR L858R (Ba/F3 cells) [10]) was less than 100 nM in each case. In addition, the IC50 (at EGFR L858R (Ba/F3 cells) [11]; in experiment [12]; in experiment [13]) was less than 100 nM each time.

In the case of `COCC[C@@H]1CNC(=O)c2c1[nH]c(-c1ccncn1)c2Nc1cccc(Cl)c1OC` [445a], the IC50 in experiment [1] was less than 100 nM; in experiment [2], less than 100 nM; in [3] it was less than 100 nM; in experiment [4] it was less than 100 nM; on EGFR (CUTO14 cells), less than 100 nM; on EGFR WT (Ba/F3 cells), 100 to 1000 nM. Also, the IC50 (in experiment [5]; in [6]; in experiment [7]; in [8]; in [9]; against EGFR L858R (Ba/F3 cells) [10]) was less than 100 nM in each case. Moreover, the IC50 (at EGFR L858R (Ba/F3 cells) [11]; in [12]; in [13]) was less than 100 nM each time.
